From ChEMBL document CHEMBL2390858, “Design, synthesis and anti-tuberculosis activity of 1-adamantyl-3-heteroaryl ureas with improved in vitro pharmacokinetic properties” (Bioorg Med Chem, 2013)
In brackets after ≈: the same amount, converted by molar mass.

Test system: Proteus vulgaris
Assay: microbe, parasite or virus in culture
Details: not given

Row | SMILES | MIC [µg/mL]
1 | O=C(Nc1ccc(S(=O)(=O)Nc2ccc(Cl)nn2)cc1)NC12CC3CC(CC(C3)C1)C2 | > 200
2 | Cc1nnc(NC(=O)NC23CC4CC(CC(C4)C2)C3)o1 | > 200
3 | Cc1cc(NS(=O)(=O)c2ccc(NC(=O)NC34CC5CC(CC(C5)C3)C4)cc2)no1 | > 200
4 | Cc1noc(NC(=O)NC23CC4CC(CC(C4)C2)C3)c1Cl | > 200
5 | O=C(Nc1ccncc1)NC12CC3CC(CC(C3)C1)C2 | > 200

Test system: Staphylococcus aureus
Assay: microbe, parasite or virus in culture
Details: ATCC 29213

Row | SMILES | MIC [µg/mL]
6 | O=C(Nc1ccc(S(=O)(=O)Nc2ccc(Cl)nn2)cc1)NC12CC3CC(CC(C3)C1)C2 | 50 (≈ 108 µM)
7 | Cc1nnc(NC(=O)NC23CC4CC(CC(C4)C2)C3)o1 | > 200
8 | Cc1cc(NS(=O)(=O)c2ccc(NC(=O)NC34CC5CC(CC(C5)C3)C4)cc2)no1 | > 200
9 | Cc1noc(NC(=O)NC23CC4CC(CC(C4)C2)C3)c1Cl | > 200
10 | O=C(Nc1ccncc1)NC12CC3CC(CC(C3)C1)C2 | > 200

Test system: Enterococcus faecalis
Assay: microbe, parasite or virus in culture
Details: not given

Row | SMILES | MIC [µg/mL]
11 | O=C(Nc1ccc(S(=O)(=O)Nc2ccc(Cl)nn2)cc1)NC12CC3CC(CC(C3)C1)C2 | 100 (≈ 216 µM)
12 | Cc1nnc(NC(=O)NC23CC4CC(CC(C4)C2)C3)o1 | > 200
13 | Cc1cc(NS(=O)(=O)c2ccc(NC(=O)NC34CC5CC(CC(C5)C3)C4)cc2)no1 | > 200
14 | Cc1noc(NC(=O)NC23CC4CC(CC(C4)C2)C3)c1Cl | > 200
15 | O=C(Nc1ccncc1)NC12CC3CC(CC(C3)C1)C2 | > 200

Test system: not given
Assay: not given
Details: buffer, 18 h, pH 7.4

Row | SMILES | solubility [µg/mL]
16 | O=C(Nc1ccc(S(=O)(=O)Nc2ccc(Cl)nn2)cc1)NC12CC3CC(CC(C3)C1)C2 | 20.7 (≈ 44.8 µM)
17 | Cc1nnc(NC(=O)NC23CC4CC(CC(C4)C2)C3)o1 | 9.77 (≈ 35.4 µM)
18 | Cc1cc(NS(=O)(=O)c2ccc(NC(=O)NC34CC5CC(CC(C5)C3)C4)cc2)no1 | 2 (≈ 4.65 µM)
19 | Cc1noc(NC(=O)NC23CC4CC(CC(C4)C2)C3)c1Cl | 1.5 (≈ 4.84 µM)
20 | O=C(Nc1ccncc1)NC12CC3CC(CC(C3)C1)C2 | 7 (≈ 25.8 µM)

Test system: Staphylococcus aureus
Assay: microbe, parasite or virus in culture
Details: NRS70

Row | SMILES | MIC [µg/mL]
21 | Cc1nnc(NC(=O)NC23CC4CC(CC(C4)C2)C3)o1 | > 200
22 | Cc1cc(NS(=O)(=O)c2ccc(NC(=O)NC34CC5CC(CC(C5)C3)C4)cc2)no1 | 50 (≈ 116 µM)
23 | Cc1noc(NC(=O)NC23CC4CC(CC(C4)C2)C3)c1Cl | > 200
24 | O=C(Nc1ccncc1)NC12CC3CC(CC(C3)C1)C2 | > 200

Test system: Bacillus subtilis
Assay: microbe, parasite or virus in culture
Details: not given

Row | SMILES | MIC [µg/mL]
25 | O=C(Nc1ccc(S(=O)(=O)Nc2ccc(Cl)nn2)cc1)NC12CC3CC(CC(C3)C1)C2 | > 200
26 | Cc1nnc(NC(=O)NC23CC4CC(CC(C4)C2)C3)o1 | > 200
27 | Cc1cc(NS(=O)(=O)c2ccc(NC(=O)NC34CC5CC(CC(C5)C3)C4)cc2)no1 | > 200
28 | Cc1noc(NC(=O)NC23CC4CC(CC(C4)C2)C3)c1Cl | > 200
29 | O=C(Nc1ccncc1)NC12CC3CC(CC(C3)C1)C2 | > 200

Test system: Acinetobacter
Assay: microbe, parasite or virus in culture
Details: not given

Row | SMILES | MIC [µg/mL]
30 | O=C(Nc1ccc(S(=O)(=O)Nc2ccc(Cl)nn2)cc1)NC12CC3CC(CC(C3)C1)C2 | > 200
31 | Cc1nnc(NC(=O)NC23CC4CC(CC(C4)C2)C3)o1 | > 200
32 | Cc1cc(NS(=O)(=O)c2ccc(NC(=O)NC34CC5CC(CC(C5)C3)C4)cc2)no1 | > 200
33 | O=C(Nc1ccncc1)NC12CC3CC(CC(C3)C1)C2 | > 200

Target: T1, Bifunctional epoxide hydrolase 2 (Homo sapiens, UniProt P34913)
T1 sequence (P34913 whole entry): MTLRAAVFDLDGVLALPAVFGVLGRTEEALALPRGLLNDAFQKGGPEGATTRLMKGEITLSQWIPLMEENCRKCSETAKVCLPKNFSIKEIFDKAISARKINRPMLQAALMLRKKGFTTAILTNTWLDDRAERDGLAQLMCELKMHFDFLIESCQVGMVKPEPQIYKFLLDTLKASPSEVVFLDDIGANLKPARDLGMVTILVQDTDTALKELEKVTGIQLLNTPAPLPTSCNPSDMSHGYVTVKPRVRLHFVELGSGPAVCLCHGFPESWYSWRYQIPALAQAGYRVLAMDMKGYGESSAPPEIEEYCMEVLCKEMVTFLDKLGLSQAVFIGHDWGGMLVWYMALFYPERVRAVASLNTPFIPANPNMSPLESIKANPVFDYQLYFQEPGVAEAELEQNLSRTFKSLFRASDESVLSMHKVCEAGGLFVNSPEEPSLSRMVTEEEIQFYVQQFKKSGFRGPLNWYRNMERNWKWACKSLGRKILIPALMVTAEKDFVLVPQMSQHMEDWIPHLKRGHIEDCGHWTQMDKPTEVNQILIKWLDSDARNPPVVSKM
Assay: not given
Details: not given

Row | SMILES | IC50 [nM]
34 | O=C(Nc1ccc(S(=O)(=O)Nc2ccc(Cl)nn2)cc1)NC12CC3CC(CC(C3)C1)C2 | 19
35 | Cc1nnc(NC(=O)NC23CC4CC(CC(C4)C2)C3)o1 | 595
36 | Cc1cc(NS(=O)(=O)c2ccc(NC(=O)NC34CC5CC(CC(C5)C3)C4)cc2)no1 | 292
37 | Cc1noc(NC(=O)NC23CC4CC(CC(C4)C2)C3)c1Cl | 0.5
38 | O=C(Nc1ccncc1)NC12CC3CC(CC(C3)C1)C2 | 174

Test system: Burkholderia cepacia
Assay: microbe, parasite or virus in culture
Details: not given

Row | SMILES | MIC [µg/mL]
39 | O=C(Nc1ccc(S(=O)(=O)Nc2ccc(Cl)nn2)cc1)NC12CC3CC(CC(C3)C1)C2 | 100 (≈ 216 µM)
40 | Cc1nnc(NC(=O)NC23CC4CC(CC(C4)C2)C3)o1 | > 200
41 | Cc1cc(NS(=O)(=O)c2ccc(NC(=O)NC34CC5CC(CC(C5)C3)C4)cc2)no1 | > 200
42 | Cc1noc(NC(=O)NC23CC4CC(CC(C4)C2)C3)c1Cl | > 200
43 | O=C(Nc1ccncc1)NC12CC3CC(CC(C3)C1)C2 | > 200

Test system: Mycobacterium tuberculosis
Assay: microbe, parasite or virus in culture
Details: H37Rv, 168 h

Row | SMILES | MIC [µg/mL]
44 | Cc1nnc(NC(=O)NC23CC4CC(CC(C4)C2)C3)o1 | 25 (≈ 90.5 µM)
45 | Cc1cc(NS(=O)(=O)c2ccc(NC(=O)NC34CC5CC(CC(C5)C3)C4)cc2)no1 | 25 (≈ 58.1 µM)
46 | Cc1noc(NC(=O)NC23CC4CC(CC(C4)C2)C3)c1Cl | 100 (≈ 323 µM)
47 | O=C(Nc1ccncc1)NC12CC3CC(CC(C3)C1)C2 | 18 (≈ 66.3 µM)

Test system: Streptococcus pneumoniae
Assay: microbe, parasite or virus in culture
Details: not given

Row | SMILES | MIC [µg/mL]
48 | O=C(Nc1ccc(S(=O)(=O)Nc2ccc(Cl)nn2)cc1)NC12CC3CC(CC(C3)C1)C2 | 100 (≈ 216 µM)
49 | Cc1nnc(NC(=O)NC23CC4CC(CC(C4)C2)C3)o1 | > 200
50 | Cc1cc(NS(=O)(=O)c2ccc(NC(=O)NC34CC5CC(CC(C5)C3)C4)cc2)no1 | > 200
51 | Cc1noc(NC(=O)NC23CC4CC(CC(C4)C2)C3)c1Cl | > 200
52 | O=C(Nc1ccncc1)NC12CC3CC(CC(C3)C1)C2 | > 200

Test system: Proteus mirabilis
Assay: microbe, parasite or virus in culture
Details: not given

Row | SMILES | MIC [µg/mL]
53 | O=C(Nc1ccc(S(=O)(=O)Nc2ccc(Cl)nn2)cc1)NC12CC3CC(CC(C3)C1)C2 | 100 (≈ 216 µM)
54 | Cc1nnc(NC(=O)NC23CC4CC(CC(C4)C2)C3)o1 | > 200
55 | Cc1cc(NS(=O)(=O)c2ccc(NC(=O)NC34CC5CC(CC(C5)C3)C4)cc2)no1 | > 200
56 | Cc1noc(NC(=O)NC23CC4CC(CC(C4)C2)C3)c1Cl | > 200
57 | O=C(Nc1ccncc1)NC12CC3CC(CC(C3)C1)C2 | > 200

Test system: Pseudomonas aeruginosa
Assay: microbe, parasite or virus in culture
Details: not given

Row | SMILES | MIC [µg/mL]
58 | O=C(Nc1ccc(S(=O)(=O)Nc2ccc(Cl)nn2)cc1)NC12CC3CC(CC(C3)C1)C2 | > 200
59 | Cc1nnc(NC(=O)NC23CC4CC(CC(C4)C2)C3)o1 | > 200
60 | Cc1cc(NS(=O)(=O)c2ccc(NC(=O)NC34CC5CC(CC(C5)C3)C4)cc2)no1 | > 200
61 | Cc1noc(NC(=O)NC23CC4CC(CC(C4)C2)C3)c1Cl | > 200
62 | O=C(Nc1ccncc1)NC12CC3CC(CC(C3)C1)C2 | > 200

Test system: Streptococcus pyogenes
Assay: microbe, parasite or virus in culture
Details: not given

Row | SMILES | MIC [µg/mL]
63 | O=C(Nc1ccc(S(=O)(=O)Nc2ccc(Cl)nn2)cc1)NC12CC3CC(CC(C3)C1)C2 | > 200
64 | Cc1nnc(NC(=O)NC23CC4CC(CC(C4)C2)C3)o1 | > 200
65 | Cc1cc(NS(=O)(=O)c2ccc(NC(=O)NC34CC5CC(CC(C5)C3)C4)cc2)no1 | > 200
66 | Cc1noc(NC(=O)NC23CC4CC(CC(C4)C2)C3)c1Cl | > 200
67 | O=C(Nc1ccncc1)NC12CC3CC(CC(C3)C1)C2 | > 200

Test system: Bacillus anthracis
Assay: microbe, parasite or virus in culture
Details: Sterne

Row | SMILES | MIC [µg/mL]
68 | O=C(Nc1ccc(S(=O)(=O)Nc2ccc(Cl)nn2)cc1)NC12CC3CC(CC(C3)C1)C2 | 1.56 (≈ 3.38 µM)
69 | Cc1nnc(NC(=O)NC23CC4CC(CC(C4)C2)C3)o1 | > 200
70 | Cc1cc(NS(=O)(=O)c2ccc(NC(=O)NC34CC5CC(CC(C5)C3)C4)cc2)no1 | > 200
71 | O=C(Nc1ccncc1)NC12CC3CC(CC(C3)C1)C2 | > 200

Test system: Klebsiella pneumoniae
Assay: microbe, parasite or virus in culture
Details: not given

Row | SMILES | MIC [µg/mL]
72 | O=C(Nc1ccc(S(=O)(=O)Nc2ccc(Cl)nn2)cc1)NC12CC3CC(CC(C3)C1)C2 | > 200
73 | Cc1nnc(NC(=O)NC23CC4CC(CC(C4)C2)C3)o1 | > 200
74 | Cc1cc(NS(=O)(=O)c2ccc(NC(=O)NC34CC5CC(CC(C5)C3)C4)cc2)no1 | > 200
75 | Cc1noc(NC(=O)NC23CC4CC(CC(C4)C2)C3)c1Cl | > 200
76 | O=C(Nc1ccncc1)NC12CC3CC(CC(C3)C1)C2 | > 200

Test system: Escherichia coli
Assay: microbe, parasite or virus in culture
Details: K-12

Row | SMILES | MIC [µg/mL]
77 | O=C(Nc1ccc(S(=O)(=O)Nc2ccc(Cl)nn2)cc1)NC12CC3CC(CC(C3)C1)C2 | > 200
78 | Cc1nnc(NC(=O)NC23CC4CC(CC(C4)C2)C3)o1 | > 200
79 | Cc1cc(NS(=O)(=O)c2ccc(NC(=O)NC34CC5CC(CC(C5)C3)C4)cc2)no1 | > 200
80 | Cc1noc(NC(=O)NC23CC4CC(CC(C4)C2)C3)c1Cl | > 200
81 | O=C(Nc1ccncc1)NC12CC3CC(CC(C3)C1)C2 | > 200
